Laboratory results: article PMC6099615, “Anti-glycation, Carbonyl Trapping and Anti-inflammatory Activities of Chrysin Derivatives” (Molecules : A Journal of Synthetic Chemistry and Natural …, 2018)
pIC50: −log10 of the molar value. ≈ marks a conversion by molar mass, not a printed value.

How the values were obtained:
[1] = test system: Amadori compound formation; assay: Hemoglobin-δ-gluconolactone assay of Amadori compound formation; type: biochemical; parameters: inhibition rate of Amadori compound formation: dose or concentration left out as unconfirmed
[2] = test system: AGE formation; assay: Bovine serum albumin-methylglyoxal assay on AGE formation; type: biochemical; details: BSA-methylglyoxal, 37 °C, 48 h
Protocol: Bovine serum albumin (50 mg/mL) was incubated at 37 °C for 48 h with methylglyoxal (100 mM) in sodium phosphate buffer (0.1 M, pH 7.4) containing 0.2 g/L NaN3 in the presence of various concentrations of the compounds (including a control).
(§1) This test was used to evaluate the ability of samples to inhibit cross-linking of the GK peptide in the presence of D-ribose using the method described by Hwang et al. The GK peptide (26.7 mg/mL) was incubated with D-ribose (200 mg/mL) in sodium phosphate buffer (0.5 M, pH 7.4) containing 0.2 g/L NaN3 under sterile conditions at 37 °C for 72 h. […] All reagents and samples were sterilized by filtration through […] membrane filters. The fluorescence intensity was measured at an excitation wavelength of 355 nm and an emission wavelength of 460 nm with a Luminescence spectrometer LS50B (Perkin-Elmer Ltd., Buckinghamshire, England). AG was used as a positive control.

[3] = test system: AGEs cross-linking; assay: N-acetyl-glycyl-lysine-methyl ester D-ribose assay on AGE cross-linking; type: biochemical; details: GK peptide-D-ribose, 37 °C, 72 h
Protocol: as §1

[4] = Water solubility analysis; type: physicochemical
Protocol: CS and derivatives were dissolved in distilled water and incubated at 37 °C with sonication for 1 h to maximize solubility. After sonication, undissolved samples were eliminated by centrifugation (7000× g, 37 °C, 5 min). The supernatants were diluted in methanol and filtered through a 0.45 μm disposable syringe filter (Advantec, Dublin, CA, USA) to analyze the concentration of the samples using HPLC analysis.

[5] = test system: NO production in LPS-induced RAW 264.7 cells; assay: NO generation in LPS-induced RAW 264.7 cells (Griess); type: cell-based; details: 24 h
Protocol: The cytotoxicity of CS and derivatives on RAW 264.7 cells was examined using the MTS assay kit. Cells (1.6 × 10^4/well) were cultured in 96-well plates and treated with samples (10, 25, and 100 μM) for 12, 24, 48, and 72 h. After incubation, 20 μL/well of MTS solution was incubated for 90 min at 37 °C in a humidified 5% CO2 atmosphere. The optical density at 490 nm was measured three times using an EL-800 Universal microplate reader (Bio-Tek Instrument Inc., Winooski, VT, USA). Cell viability of the untreated group was set to 100%. RAW 264.7 cells were seeded into 12-well plates at 4 × 10^5-cells/well, and then incubated with LPS (1 μg/mL) and various concentrations of samples for 24 h. The concentration of nitric oxide (NO) in the medium was measured using the Griess reagent system, as described by the manufacturer. The production of NO was measured at 570 nm using an EL-800 Universal microplate reader (Bio-Tek Instrument Inc., Winooski, VT, USA), and was compared with a sodium nitrite standard calibration curve.

Compound: CC(=O)Oc1cc(OC(C)=O)c2c(=O)cc(-c3ccccc3)oc2c1 [5,7-Di-O-acetylchrysin, 5,7-di-O-acetylchrysin]
- inhibition rate of Amadori compound formation ([1]; dose-dependent): 1.76–55.13%
- pIC50 ([1]; early stage of AGE formation): 6.59
- inhibitory activity on Amadori compound formation, fold higher than positive control AG ([1]; relative to Aminoguanidine hydrochloride (IC50 = 109.74 μM)): 422.07 fold
- inhibitory activity on Amadori compound formation, fold higher than CS ([1]; relative to CS): 66.96 fold
- pIC50 [2]: 6.04
- pIC50 [3]: 4.65
- water solubility, fold higher than CS ([4]; relative to CS): 8.83 fold
- solubility at 1 h ([4]; thermodynamic from solid, distilled water, 37 °C, sonication 1 h): 265 µM (≈ 89.7 µg/mL)
- inhibition of NO [5]: concentration-dependent inhibition
